Results as given in patent US10988477B2 (Merck Patent GmbH, priority 2018, dated 2021).
Read-outs that look alike come from different tables or passages of the source.

Assays:
[1] = target: GCN2 kinase (Homo sapiens, UniProt Q9P2K8); test: GCN2 enzyme inhibition assay (Transcreener ADP2 fluorescence polarization); assay type: biochemical; settings: 280 μM ATP
How it was run: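 Kinase activity is followed as ADP formation, measured by fluorescence polarization, using 4 nM enzyme with 280 μM ATP and 200 μM (RS)7 peptide at pH 7.5 and 25 °C for 1 h. Values come from a non-linear tight-binding fit.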

[2] = target: intracellular GCN2 (phosphorylation of the GCN2 substrate eIF2α) (Homo sapiens, UniProt Q9P2K8); test: GCN2 cellular inhibition assay (AlphaScreen SureFire P-eIF2α Ser51, borrelidin-treated U2OS cells); assay type: cell-based
How it was run: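 Borrelidin at 10 μM is added to U2OS cells immediately after compound (4-fold dilution series, 40 μM top final) for 1 h at 37 °C. Phosphorylated eIF2α Ser51 in lysates is quantified by AlphaScreen and expressed as percent inhibition against borrelidin-stimulated controls.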

[3] = Enzyme activity for compounds of Formula IV, Ki(app), 25° C.
[4] = compounds of Formula IV, biomarker assay, phosphorylated eIF2α Ser51 in borrelidin-treated U2OS cells
[5] = compounds of Formula V, 4 nM GCN2 kinase
[6] = compounds of Formula V, U2OS cells, 10 μM borrelidin, 1 h, read-out: GCN2 Biomarker (IC50)

Chain of intracellular GCN2 (phosphorylation of the GCN2 substrate eIF2α) (Q9P2K8 whole entry): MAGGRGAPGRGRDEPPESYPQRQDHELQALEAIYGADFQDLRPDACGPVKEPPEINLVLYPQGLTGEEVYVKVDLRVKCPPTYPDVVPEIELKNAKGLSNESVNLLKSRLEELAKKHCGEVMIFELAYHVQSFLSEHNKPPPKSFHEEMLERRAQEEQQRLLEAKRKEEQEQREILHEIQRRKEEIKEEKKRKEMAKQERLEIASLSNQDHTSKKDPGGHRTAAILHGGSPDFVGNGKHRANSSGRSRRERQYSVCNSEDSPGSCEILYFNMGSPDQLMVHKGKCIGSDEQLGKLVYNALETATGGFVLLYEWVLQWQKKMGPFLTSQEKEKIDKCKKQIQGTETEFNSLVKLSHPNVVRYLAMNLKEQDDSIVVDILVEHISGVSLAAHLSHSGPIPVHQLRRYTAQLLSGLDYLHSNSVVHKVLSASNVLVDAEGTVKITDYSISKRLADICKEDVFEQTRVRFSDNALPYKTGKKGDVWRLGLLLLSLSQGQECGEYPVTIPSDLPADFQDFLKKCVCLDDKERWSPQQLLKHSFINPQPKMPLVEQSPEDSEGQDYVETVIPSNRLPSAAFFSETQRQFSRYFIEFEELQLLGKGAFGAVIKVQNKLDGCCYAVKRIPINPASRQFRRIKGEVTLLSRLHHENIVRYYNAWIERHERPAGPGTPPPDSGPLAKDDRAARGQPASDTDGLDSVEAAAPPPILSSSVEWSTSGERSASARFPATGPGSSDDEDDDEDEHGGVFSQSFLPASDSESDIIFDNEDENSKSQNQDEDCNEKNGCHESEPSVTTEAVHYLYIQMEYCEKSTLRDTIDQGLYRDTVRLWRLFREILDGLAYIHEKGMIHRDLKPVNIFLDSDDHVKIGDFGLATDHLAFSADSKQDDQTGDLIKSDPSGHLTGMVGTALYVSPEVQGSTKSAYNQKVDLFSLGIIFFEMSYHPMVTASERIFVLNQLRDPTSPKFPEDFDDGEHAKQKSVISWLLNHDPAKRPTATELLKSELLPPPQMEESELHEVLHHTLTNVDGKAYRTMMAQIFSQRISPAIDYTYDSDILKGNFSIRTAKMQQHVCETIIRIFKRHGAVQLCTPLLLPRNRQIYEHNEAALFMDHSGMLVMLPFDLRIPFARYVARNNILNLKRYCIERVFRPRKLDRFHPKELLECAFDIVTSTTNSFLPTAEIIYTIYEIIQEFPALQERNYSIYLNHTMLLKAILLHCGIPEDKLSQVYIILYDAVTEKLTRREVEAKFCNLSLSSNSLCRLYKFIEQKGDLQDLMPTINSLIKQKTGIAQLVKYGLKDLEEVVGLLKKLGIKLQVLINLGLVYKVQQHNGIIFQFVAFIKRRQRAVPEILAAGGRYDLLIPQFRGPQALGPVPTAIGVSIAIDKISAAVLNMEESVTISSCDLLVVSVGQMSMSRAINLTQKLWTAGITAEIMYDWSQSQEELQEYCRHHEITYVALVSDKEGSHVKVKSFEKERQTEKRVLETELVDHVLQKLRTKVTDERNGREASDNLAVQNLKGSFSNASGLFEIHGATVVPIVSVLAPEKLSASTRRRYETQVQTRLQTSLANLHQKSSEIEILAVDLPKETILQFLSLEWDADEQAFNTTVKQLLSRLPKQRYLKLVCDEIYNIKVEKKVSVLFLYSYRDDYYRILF
Chain of GCN2 kinase (Q9P2K8 whole entry): as above

Row | Ki [1, 3] [nM] | IC50 [2, 4] [nM] | Ki [1, 5] [nM] | IC50 [2, 6] [nM] | Structure (SMILES)
1 | < 10 | < 500 | – | – | CC1CN(c2ccnc(-c3cnc4cnc(C(F)(F)F)cn34)n2)C(C)C(c2c[nH]cn2)O1 (single isomer, unassigned) [IV-639, 2-(1H-Imidazol-4-yl)-3,6-dimethyl-4-(2-(6-(trifluoromethyl)imidazo[1,2-a]pyrazin-3-yl)pyrimidin-4-yl)morpholine]
2 | 100 to 1000 | > 5000 | – | – | CC1CN(c2cncc(-c3cnc4cnc(C(F)(F)F)cn34)n2)C(C)C(c2cn[nH]c2)N1 (single isomer, unassigned) [IV-649, 3-(6-(2,5-Dimethyl-3-(1H-pyrazol-4-yl)piperazin-1-yl)pyrazin-2-yl)-6-(trifluoromethyl)imidazo[1,2-a]pyrazine]
3 | < 10 | 500 to 5000 | – | – | CC1CN(c2cncc(-c3cnc4cnc(C(F)(F)F)cn34)n2)C(C)C(c2cn[nH]c2)N1 (single isomer, unassigned) [IV-650, 3-(6-(2,5-Dimethyl-3-(1H-pyrazol-4-yl)piperazin-1-yl)pyrazin-2-yl)-6-(trifluoromethyl)imidazo[1,2-a]pyrazine]
4 | < 10 | < 500 | – | – | CC1CN(c2ccnc(-c3cnc4cnc(C(F)(F)F)cn34)n2)CC(c2cn[nH]c2Cl)N1 (single isomer, unassigned) [IV-651, 3-[4-[3-(5-Chloro-1H-pyrazol-4-yl)-5-methyl-piperazin-1-yl]pyrimidin-2-yl]-6-(trifluoromethyl)imidazo[1,2-a]pyrazine]
5 | 10 to 100 | 500 to 5000 | – | – | CC1CN(c2ccnc(-c3cnc4cnc(C(F)(F)F)cn34)n2)CC(c2cn[nH]c2Cl)N1 (single isomer, unassigned) [IV-652, 3-[4-[3-(5-Chloro-1H-pyrazol-4-yl)-5-methyl-piperazin-1-yl]pyrimidin-2-yl]-6-(trifluoromethyl)imidazo[1,2-a]pyrazine]
6 | 100 to 1000 | > 5000 | – | – | Cc1cc(N2CC(C)NC(c3cn[nH]c3)C2C)nc(-c2cnc3cnc(C(F)(F)F)cn23)n1 (single isomer, unassigned) [IV-669, 3-(4-(2,5-Dimethyl-3-(1H-pyrazol-4-yl)piperazin-1-yl)-6-methylpyrimidin-2-yl)-6-(trifluoromethyl)imidazo[1,2-a]pyrazine]
7 | < 10 | 500 to 5000 | – | – | Cc1cc(N2CC(C)NC(c3cn[nH]c3)C2C)nc(-c2cnc3cnc(C(F)(F)F)cn23)n1 (single isomer, unassigned) [IV-670, 3-(4-(2,5-Dimethyl-3-(1H-pyrazol-4-yl)piperazin-1-yl)-6-methylpyrimidin-2-yl)-6-(trifluoromethyl)imidazo[1,2-a]pyrazine]
8 | < 10 | 500 to 5000 | – | – | CC1CN(c2ccnc(-c3cnc4cnc(C(F)(F)F)cn34)n2)C(C)C(c2c[nH]c(C(F)(F)F)n2)N1 (single isomer, unassigned) [IV-673, 3-(4-(2,5-Dimethyl-3-(2-(trifluoromethyl)-1H-imidazol-4-yl)piperazin-1-yl)pyrimidin-2-yl)-6-(trifluoromethyl)imidazo[1,2-a]pyrazine]
9 | 10 to 100 | 500 to 5000 | – | – | CC(C)(O)C1CC(c2cn[nH]c2)CN(c2ccnc(-c3cnc4cnc(C(F)(F)F)cn34)n2)C1 (single isomer, unassigned) [IV-682, 2-(5-(1H-Pyrazol-4-yl)-1-(2-(6-(trifluoromethyl)imidazo[1,2-a]pyrazin-3-yl)pyrimidin-4-yl)piperidin-3-yl)propan-2-ol]
10 | 10 to 100 | 500 to 5000 | – | – | CC(C)(O)C1CC(c2cn[nH]c2)CN(c2ccnc(-c3cnc4cnc(C(F)(F)F)cn34)n2)C1 (single isomer, unassigned) [IV-683, 2-(5-(1H-Pyrazol-4-yl)-1-(2-(6-(trifluoromethyl)imidazo[1,2-a]pyrazin-3-yl)pyrimidin-4-yl)piperidin-3-yl)propan-2-ol]
11 | < 10 | < 500 | – | – | CC(C)(O)C1CC(c2cn[nH]c2)CN(c2ccnc(-c3cnc4cnc(C(F)(F)F)cn34)n2)C1 (single isomer, unassigned) [IV-684, 2-(5-(1H-Pyrazol-4-yl)-1-(2-(6-(trifluoromethyl)imidazo[1,2-a]pyrazin-3-yl)pyrimidin-4-yl)piperidin-3-yl)propan-2-ol]
12 | < 10 | < 500 | – | – | CC(C)(O)C1CC(c2cn[nH]c2)CN(c2ccnc(-c3cnc4cnc(C(F)(F)F)cn34)n2)C1 (single isomer, unassigned) [IV-685, 2-(5-(1H-Pyrazol-4-yl)-1-(2-(6-(trifluoromethyl)imidazo[1,2-a]pyrazin-3-yl)pyrimidin-4-yl)piperidin-3-yl)propan-2-ol]
13 | – | – | < 10 | 500 to 5000 | C[C@H]1CN(c2ccnc(-c3cnc4sc(C(F)F)cn34)n2)C[C@@H](CNS(C)(=O)=O)C1(F)F (stereo in doubt) [Compound V-1, N-((-1-(2-(2-(Difluoromethyl)imidazo[2,1-b]thiazol-5-yl)pyrimidin-4-yl)-4,4-difluoro-5-methylpiperidin-3-yl)methyl)methanesulfonamide]
14 | – | – | < 10 | < 500 | FC(F)(F)c1cn2c(-c3nccc(N4CCO[C@H](c5cn[nH]c5)C4)n3)cnc2s1 (stereo in doubt) [Compound V-3, 2-(1H-Pyrazol-4-yl)-4-(2-(2-(trifluoromethyl)imidazo[2,1-b]thiazol-5-yl)pyrimidin-4-yl)morpholine]
15 | – | – | 10 to 100 | 500 to 5000 | FC(F)(F)c1cn2c(-c3nccc(N4CCO[C@@H](c5cn[nH]c5)C4)n3)cnc2s1 (stereo in doubt) [Compound V-4, 2-(1H-pyrazol-4-yl)-4-(2-(2-(trifluoromethyl)imidazo[2,1-b]thiazol-5-yl)pyrimidin-4-yl)morpholine]
16 | – | – | 10 to 100 | 500 to 5000 | FC(F)(F)c1cn2c(-c3nccc(N4CCC(c5cn[nH]c5)C4)n3)cnc2s1 (stereo not shown) [Compound V-7, 5-[4-[3-(1H-Pyrazol-4-yl)pyrrolidin-1-yl]pyrimidin-2-yl]-2-(trifluoromethyl)imidazo[2,1-b]thiazole]
17 | – | – | < 10 | < 500 | NC(=O)[C@H]1CCCN(c2ccnc(-c3cnc4sc(C(F)(F)F)cn34)n2)C1 [Compound V-10, (3S)-1-[2-[2-(Trifluoromethyl)imidazo[2,1-b]thiazol-5-yl]pyrimidin-4-yl]piperidine-3-carboxamide]
18 | – | – | < 10 | < 500 | CC1CN(c2ccnc(-c3cnc4sc(C(F)(F)F)cn34)n2)C(C)C(c2cn[nH]c2)N1 (stereo not shown) [Compound V-13, 5-[4-[2,5-Dimethyl-3-(1H-pyrazol-4-yl)piperazin-1-yl]pyrimidin-2-yl]-2-(trifluoromethyl)imidazo[2,1-b]thiazole]
19 | – | – | 10 to 100 | 500 to 5000 | CC1CN(c2ccnc(-c3cnc4sc(C(F)F)cn34)n2)CC(CNS(C)(=O)=O)C1(F)F (stereo not shown) [Compound V-14, N-[[1-[2-[2-(Difluoromethyl)imidazo[2,1-b]thiazol-5-yl]pyrimidin-4-yl]-4,4-difluoro-5-methyl-3-piperidyl]methyl]methanesulfonamide]
20 | – | – | < 10 | < 500 | FC(F)(F)c1cn2c(-c3nccc(N4CCOC(c5cn[nH]c5)C4)n3)cnc2s1 (stereo not shown) [Compound V-15, 2-(1H-Pyrazol-4-yl)-4-[2-[2-(trifluoromethyl)imidazo[2,1-b]thiazol-5-yl]pyrimidin-4-yl]morpholine]
